Laboratory results from ChEMBL document CHEMBL1157121, “Diterpenoids from the feces of Trogopterus xanthipes” (J Nat Prod, 2010).

Key:
Assay type in all cases: functional, cell-based
[1] = test system: HepG2; assay: Cytotoxicity against human HepG2 cells after 48 hrs by MTT assay; settings: HepG2, 48 h
[2] = test system: HL-60; assay: Cytotoxicity against human HL60 cells after 48 hrs by MTT assay; settings: HL-60, 48 h
[3] = test system: Jurkat; assay: Cytotoxicity against human Jurkat cells after 48 hrs by MTT assay
[4] = test system: U-937; assay: Cytotoxicity against human U937 cells after 48 hrs by MTT assay; settings: U-937, 48 h

Compound | IC50 [1] [µM] | IC50 [2] [µM] | IC50 [3] [µM] | IC50 [4] [µM]
C=C[C@@]1(C)CC[C@H]2[C@@](O)(CC[C@H]3C(C)(C)C(=O)CC[C@@]32C)C1 | > 40 | > 40 | > 40 | > 40
CC(C)c1c(O)ccc2c1CC[C@H]1C(C)(C)[C@@H](O)CC[C@]21C | > 40 | 24.3 | > 40 | 24.7
C=C[C@]1(C)C=C2CC[C@H]3[C@H](C)C(=O)CC[C@]3(C)[C@H]2CC1 | > 40 | > 40 | > 40 | > 40
C=C[C@@]1(C)CC[C@H]2C(=CC[C@H]3C(C)(C)C(=O)CC[C@]23C)C1 | 32.9 | > 40 | > 40 | > 40
C=C[C@]1(C)C=C2CC[C@H]3C(C)(C)C(=O)CC[C@]3(C)[C@H]2CC1 | > 40 | > 40 | > 40 | > 40
C=C[C@@]1(C)CCC2=C(CC[C@H]3C(C)(C)[C@@H](O)CC[C@]23C)C1 | > 40 | > 40 | > 40 | > 40
C=C[C@@]1(C)CC[C@H]2[C@@](O)(CC[C@H]3[C@@](C)(CO)CCC[C@@]32C)C1 [AKHDARDIOL] | > 40 | > 40 | > 40 | > 40
CC(C)c1cc2c(cc1O)[C@@]1(C)CCCC(C)(C)[C@@H]1CC2 [FERRUGINOL] | > 40 | > 40 | 35.1 | 19.7
CC[C@@]1(O)C(=O)OCc2c1cc1n(c2=O)Cc2cc3cc(O)ccc3nc2-1 [HYDROXYCAMPTOTHECIN] | 3.7 | 0.04 | 0.03 | 0.11
C=C[C@@]1(C)CC[C@H]2C(=CC[C@H]3C(C)(C)[C@@H](O)CC[C@]23C)C1 [ISOPIMARANE] | > 40 | > 40 | > 40 | > 40
CC(C)c1ccc2c(c1O)C[C@@H](O)[C@H]1[C@@](C)(CO)CCC[C@]21C [MACROPHYNIN E] | > 40 | > 40 | > 40 | > 40
CC(C)c1cc2c(cc1O)CC[C@H]1C(C)(C)CCC[C@]21C [SEMPERVIROL] | > 40 | > 40 | > 40 | > 40
CC1=C2C=C[C@]34C[C@](C)(CC[C@@H]3[C@@]2(C)CCC1=O)C(=O)O4 [TROGOPTEROID A] | > 40 | > 40 | > 40 | > 40
C=C[C@]1(C)C[C@]2(O)CC[C@H]3C(C)(C)C(=O)CC[C@]3(C)[C@H]2CC1=O [TROGOPTEROID B] | > 40 | > 40 | > 40 | > 40
C=C[C@]1(C)CC2(O)CC[C@H]3C(C)(C)C(=O)C=C[C@]3(C)[C@H]2CC1=O (stereo partly specified) [TROGOPTEROID C] | > 40 | > 40 | > 40 | > 40
CC(C)c1c(O)ccc2c1CC[C@H]1[C@@](C)(CO)C(=O)CC[C@]21C [TROGOPTEROID D] | > 40 | > 40 | > 40 | > 40
CC(C)c1c(O)ccc2c1C[C@@H](O)[C@H]1C(C)(C)C(=O)CC[C@]21C [TROGOPTEROID E] | > 40 | > 40 | > 40 | > 40
CC(C)c1cc2c(cc1O)C[C@@H](O)[C@H]1[C@@](C)(CO)CCC[C@]21C [TROGOPTEROID F] | > 40 | > 40 | > 40 | > 40
CC(C)c1c(O)ccc2c1CC[C@H]1[C@@](C)(CO)C(=O)C=C[C@]21C [TROGOPTEROID G] | > 40 | > 40 | > 40 | > 40
